According to ChEMBL document CHEMBL5390201, “The Natural Alkaloid (-)-N-Hydroxyapiosporamide Suppresses Colorectal Tumor Progression as an NF-κB Pathway Inhibitor by Targeting the TAK1-TRAF6 Complex” (J Nat Prod, 2023):
The source made the active and inactive calls. The calls are words filed in the database; no cut-off is given here.

Tests used:
Mus musculus [1] = assay: In vivo inhibition of NFkappaB activation in athymic BALB/c mouse xenografted with human HT-29 cells assessed as reduction in IL-8 gene expression in tumor at 5 to 15 mg/kg, ip administered every other day and measured after 14 days by qRT-PCR analysis; format: functional, organism-based; details: dose 5-15 mg/kg, time 14.0 day
[2] = target: T1, Nuclear factor NF-kappa-B complex (Homo sapiens) (UniProt Q00653+P19838+Q04206); assay: Inhibition of TNF-alpha induced NFkappaB activation in human HT-29 cells assessed as inhibition of IkappaBalpha phosphorylation at 1 to 10 uM pretreated for 24 hrs followed by TNFalpha stimulation for 10 mins by Western blot analysis; format: cell-based; details: dose 1-10 µM, time 1450.0 min
HT-29 [3] = assay: Induction of cell cycle arrest in human HT-29 cells assessed as decrease in Cyclin B protein expression upto 10 uM incubated for 24 hrs by Western blot analysis; format: functional, cell-based
HCT-116 [4] = assay: Induction of apoptosis in human HCT-116 cells assessed as early apoptotic cells at 5 uM incubated for 24 hrs by Annexin V-FITC/PI staining based flow cytometric analysis (reference value: 7.22 %); format: functional
HT-29 [5] = assay: Induction of autophagy in human HT-29 cells assessed as increase in autophagic vesicles at 1 to 10 uM incubated for 24 hrs MDC staining-based fluorescence microscopy; format: functional, cell-based; details: dose 1-10 µM
HCT-116 [6] = assay: Induction of apoptosis in human HCT-116 cells assessed as viable cells at 5 uM incubated for 24 hrs by Annexin V-FITC/PI staining based flow cytometric analysis (reference value: 74.3 %); format: functional; details: read-out: Activity
[7] = target: T1, Nuclear factor NF-kappa-B complex (Homo sapiens); assay: Inhibition of TNF-alpha induced NFkappaB activation in human HT-29 cells assessed as downregulation of MCP-1 gene expression pretreated for 24 hrs followed by TNFalpha stimulation and measured after 2 hrs by quantitative RT-PCR analysis; format: cell-based; details: dose 1-10 µM, time 26.0 hrs
Mus musculus [8] = assay: Anti-inflammatory activity in AOM/DSS-induced BALB/c mouse model inflammatory bowel disease assessed as reduction in hyperplasia at 10 mg/kg, ip pretreated with AOM for 7 days further replaced with DSS for 7 days and repeated for 2 times followed by every 2 days compound treatment for […] starting from day 50 by H and E staining based analysis; format: functional, organism-based; details: time 21.0 day
HCT-116 [9] = assay: Induction of autophagic cell death in human HCT-116 cells at 1 to 10 uM pretreated with chloroquine for 1 hr followed by compound addition and measured after 24 hrs by SRB assay; format: functional, cell-based; details: dose 1-10 µM
HT-29 [10] = assay: Induction of cell cycle arrest in human HT-29 cells assessed as accumulation of cells at G2/M phase at 10 uM by RNase/PI staining based flow cytometry analysis (reference value: 9.93 %); format: functional
Mus musculus [11] = assay: Anti-inflammatory activity in AOM/DSS-induced BALB/c mouse model inflammatory bowel disease assessed as reduction in transformation into adenocarcinoma at 10 mg/kg, ip pretreated with AOM for 7 days further replaced with DSS for 7 days and repeated for 2 times followed by every 2 days compound treatment for […] starting from day 50 by H and E staining based analysis; format: functional, organism-based; details: time 21.0 day
Mus musculus [12] = assay: Protection against LPS-induced endotoxic shock in BALB/c mouse model assessed as survival rate at 5 mg/kg, ip pretreated for 4 hrs followed by LPS administration at 20 mg/kg and measured every 2 to 4 hrs for 44 hrs relative to control; format: functional; details: time 48 hrs
[13] = target: T1, Nuclear factor NF-kappa-B complex (Homo sapiens); assay: Inhibition of NFkappaB activation in HEK293T cells transfected with Flag-tagged MyD88 and kappaB luciferase/pTK-renilla reporters at 2 uM incubated for 6 hrs by Dual Luciferase Reporter Assay; format: cell-based; details: HEK-293T
Mus musculus [14] = assay: In vivo inhibition of NFkappaB activation in LPS-induced BALB/c mouse model of endotoxin shock assessed as inhibition of IL6 mRNA expression in liver at 5 mg/kg, ip pretreated for 4 hrs followed by LPS stimulation for 1 hr by RT-PCR analysis; format: functional, organism-based; details: time 5.0 hrs
HCT-116 [15] = assay: Induction of apoptosis in human HCT-116 cells assessed as necrotic cells at 1 uM incubated for 24 hrs by Annexin V-FITC/PI staining based flow cytometric analysis (reference value: 1.1 %); format: functional
[16] = Toxicity in athymic nude BALB/c mouse xenografted with human HT-29 cells assessed as pathological changes in heart at 5 to 15 mg/kg, ip administered every other day and measured after 14 days by hematoxylin and eosin staining-based microscopic analysis; format: organism-based; details: in vivo, 336 h, dose 5-15 mg/kg, time 14 day
Mus musculus [17] = assay: In vivo inhibition of NFkappaB activation in athymic BALB/c mouse xenografted with human HT-29 cells assessed as reduction in E-selectin gene expression in tumor at 5 to 15 mg/kg, ip administered every other day and measured after 14 days by qRT-PCR analysis; format: functional, organism-based; details: dose 5-15 mg/kg, time 14.0 day
HCT-116 [18] = assay: Induction of cell cycle arrest in human HCT-116 cells assessed as accumulation of cells at S phase at 1 uM by RNase/PI staining based flow cytometry analysis (reference value: 43.77 %); format: functional
HCT-116 [19] = assay: Induction of apoptosis in human HCT-116 cells assessed as inhibition of PARP protein expression measured for 24 hrs by Western blot analysis; format: functional, cell-based; details: dose 0-10 µM
HT-29 [20] = assay: Antitumor activity against human HT-29 cells xenografted in athymic nude BALB/c mouse assessed as induction of apoptosis by measuring increase in cleaved caspase 3 expression in tumor at 15 mg/kg, ip administered every other day and measured after 14 days by immunohistochemistry analysis; format: functional, organism-based; details: time 14.0 day
Mus musculus [21] = assay: In vivo inhibition of NFkappaB activation in athymic BALB/c mouse xenografted with human HCT-116 cells assessed as reduction in E-selectin gene expression in tumor at 15 mg/kg, ip administered every other day and measured after 14 days by qRT-PCR analysis; format: functional, organism-based; details: time 14.0 day
HT-29 [22] = assay: Induction of apoptosis in human HT-29 cells assessed as early apoptotic cells at 10 uM incubated for 24 hrs by Annexin V-FITC/PI staining based flow cytometric analysis (reference value: 5.29 %); format: functional
HT-29 [23] = assay: Induction of apoptosis in human HT-29 cells assessed as late apoptotic cells at 5 uM preincubated with Z-VAD-FMK for 1 hr followed by compound addition and measured after 24 hrs by Annexin V-FITC/PI staining based flow cytometric analysis (reference value: 7.01 %); format: functional
HCT-116 [24] = assay: Induction of cell cycle arrest in human HCT-116 cells assessed as decrease in CDK4 protein expression upto 10 uM incubated for 24 hrs by Western blot analysis; format: functional, cell-based
HCT-116 [25] = assay: Induction of apoptosis in human HCT-116 cells assessed as early apoptotic cells at 0.5 uM incubated for 24 hrs by Annexin V-FITC/PI staining based flow cytometric analysis (reference value: 7.22 %); format: functional
HCT-116 [26] = assay: Induction of apoptosis in human HCT-116 cells assessed as necrotic cells at 5 uM incubated for 24 hrs by Annexin V-FITC/PI staining based flow cytometric analysis (reference value: 1.1 %); format: functional
[27] = target: T1, Nuclear factor NF-kappa-B complex (Homo sapiens); assay: Inhibition of TNF-alpha induced NFkappaB activation in human HT-29 cells assessed as inhibition of IkappaBalpha degradation at 1 to 10 uM pretreated for 24 hrs followed by TNFalpha stimulation for 10 mins by Western blot analysis; format: cell-based; details: dose 1-10 µM, time 1450.0 min
HCT-116 [28] = assay: Induction of apoptosis in human HCT-116 cells assessed as late apoptotic cells at 0.5 uM incubated for 24 hrs by Annexin V-FITC/PI staining based flow cytometric analysis (reference value: 2.9 %); format: functional

T1 sequence (P19838 whole entry, looked up): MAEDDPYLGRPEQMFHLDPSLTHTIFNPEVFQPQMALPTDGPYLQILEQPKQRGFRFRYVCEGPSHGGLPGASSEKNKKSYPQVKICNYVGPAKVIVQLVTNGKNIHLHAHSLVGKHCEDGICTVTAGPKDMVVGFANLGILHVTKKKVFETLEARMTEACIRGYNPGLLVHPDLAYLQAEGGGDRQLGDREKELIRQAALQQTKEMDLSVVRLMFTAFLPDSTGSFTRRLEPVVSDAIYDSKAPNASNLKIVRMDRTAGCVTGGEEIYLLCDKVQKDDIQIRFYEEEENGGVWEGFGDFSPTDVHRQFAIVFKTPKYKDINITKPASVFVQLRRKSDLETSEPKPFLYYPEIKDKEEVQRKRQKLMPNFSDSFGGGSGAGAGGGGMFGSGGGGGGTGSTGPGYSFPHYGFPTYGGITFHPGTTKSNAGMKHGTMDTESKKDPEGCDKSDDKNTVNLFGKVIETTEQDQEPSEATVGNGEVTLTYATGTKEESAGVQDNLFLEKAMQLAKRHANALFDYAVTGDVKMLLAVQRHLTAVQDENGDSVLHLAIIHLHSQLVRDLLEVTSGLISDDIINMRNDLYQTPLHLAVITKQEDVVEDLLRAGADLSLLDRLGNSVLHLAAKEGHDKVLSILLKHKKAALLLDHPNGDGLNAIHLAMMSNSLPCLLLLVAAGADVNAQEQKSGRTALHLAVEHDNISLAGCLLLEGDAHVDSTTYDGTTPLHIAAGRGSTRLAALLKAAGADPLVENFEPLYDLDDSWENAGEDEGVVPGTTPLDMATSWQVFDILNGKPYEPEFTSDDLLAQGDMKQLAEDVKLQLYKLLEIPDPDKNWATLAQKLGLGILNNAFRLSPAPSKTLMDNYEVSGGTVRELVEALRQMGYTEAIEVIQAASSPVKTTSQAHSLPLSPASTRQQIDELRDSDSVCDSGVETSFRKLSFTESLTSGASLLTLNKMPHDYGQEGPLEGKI
T1 sequence (Q00653 whole entry, looked up): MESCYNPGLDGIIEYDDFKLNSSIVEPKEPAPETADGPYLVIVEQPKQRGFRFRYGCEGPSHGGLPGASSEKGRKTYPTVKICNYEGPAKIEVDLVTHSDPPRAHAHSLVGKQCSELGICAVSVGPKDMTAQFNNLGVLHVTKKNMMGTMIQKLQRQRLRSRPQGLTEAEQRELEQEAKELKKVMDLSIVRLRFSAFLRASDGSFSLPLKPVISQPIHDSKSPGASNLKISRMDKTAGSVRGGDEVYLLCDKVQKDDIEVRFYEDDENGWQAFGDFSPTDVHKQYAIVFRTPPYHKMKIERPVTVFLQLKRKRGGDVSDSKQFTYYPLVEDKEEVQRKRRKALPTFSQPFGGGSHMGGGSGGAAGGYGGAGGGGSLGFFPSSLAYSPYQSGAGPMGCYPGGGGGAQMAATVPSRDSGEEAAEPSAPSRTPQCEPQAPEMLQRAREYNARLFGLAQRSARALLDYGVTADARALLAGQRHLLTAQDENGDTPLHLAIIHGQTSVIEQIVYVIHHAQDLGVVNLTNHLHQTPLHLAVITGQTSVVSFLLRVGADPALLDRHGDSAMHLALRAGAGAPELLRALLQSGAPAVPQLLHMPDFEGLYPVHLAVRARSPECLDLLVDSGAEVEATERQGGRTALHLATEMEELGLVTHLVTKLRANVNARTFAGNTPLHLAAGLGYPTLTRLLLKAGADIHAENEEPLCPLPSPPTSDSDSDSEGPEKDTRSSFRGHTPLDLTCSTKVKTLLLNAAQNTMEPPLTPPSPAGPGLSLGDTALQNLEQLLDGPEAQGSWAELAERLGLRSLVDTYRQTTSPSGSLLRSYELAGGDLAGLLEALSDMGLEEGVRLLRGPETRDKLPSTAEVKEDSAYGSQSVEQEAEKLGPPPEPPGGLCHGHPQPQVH
T1 sequence (Q04206 whole entry, looked up): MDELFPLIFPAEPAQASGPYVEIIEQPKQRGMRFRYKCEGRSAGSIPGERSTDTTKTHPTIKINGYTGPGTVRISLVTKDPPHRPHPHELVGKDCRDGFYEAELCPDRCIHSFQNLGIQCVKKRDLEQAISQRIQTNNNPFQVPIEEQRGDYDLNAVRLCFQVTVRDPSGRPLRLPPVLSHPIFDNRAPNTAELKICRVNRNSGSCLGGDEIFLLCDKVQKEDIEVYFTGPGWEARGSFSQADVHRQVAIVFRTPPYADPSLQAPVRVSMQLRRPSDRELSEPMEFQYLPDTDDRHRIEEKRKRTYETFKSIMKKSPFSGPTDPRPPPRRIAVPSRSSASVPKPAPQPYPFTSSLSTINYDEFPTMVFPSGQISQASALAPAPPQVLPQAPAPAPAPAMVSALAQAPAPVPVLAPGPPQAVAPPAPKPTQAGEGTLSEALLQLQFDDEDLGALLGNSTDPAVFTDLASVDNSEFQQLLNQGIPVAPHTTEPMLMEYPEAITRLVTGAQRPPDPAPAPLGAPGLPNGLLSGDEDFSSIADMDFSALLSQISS

C[C@@H]1CC[C@H]2[C@H](C(=O)c3c(O)c([C@@]4(O)CC[C@@H](O)[C@H]5O[C@H]54)cn(O)c3=O)[C@H](C)C=C[C@@H]2C1
inhibition (Mus musculus [1]): Active | inhibition [2]: Active | Activity (HT-29 [3]): Active | Activity (HCT-116 [4]): 16.2% | Activity (HT-29 [5]): Active | viability at 5 µM (HCT-116 [6]): 15.6% | inhibition [7]: Dose-Dependent Effect | Activity (Mus musculus [8]): Active | Activity (HCT-116 [9]): inactive | Activity (HT-29 [10]): 0.78% | Activity (Mus musculus [11]): Active | survival at 5 mg/kg (Mus musculus [12]): > 40% | inhibition [13]: Active | inhibition (Mus musculus [14]): Active | Activity (HCT-116 [15]): 2.41% | Activity [16]: Non-Toxic | inhibition (Mus musculus [17]): Active | Activity (HCT-116 [18]): 43.65% | Activity (HCT-116 [19]): Dose-Dependent Effect | Activity (HT-29 [20]): Active | inhibition (Mus musculus [21]): Active | Activity (HT-29 [22]): 46.2% | Activity (HT-29 [23]): 17.2% | Activity (HCT-116 [24]): Active | Activity (HCT-116 [25]): 13.2% | Activity (HCT-116 [26]): 2.9% | inhibition [27]: Active | Activity (HCT-116 [28]): 32.8%
